Measurements reported in patent US20260184807A1, “Methods for Treating Rheumatoid Arthritis Using a Syndecan-1 Inhibitor or Syntenin-1 Inhibitor” (The United States Government as represented by the …, priority 2022, published 2026).

Test system: HUVECs
Assay: Metabolite quantification in Syntenin-1 treated HUVECs (colorimetric assay)
Format: cell-based, human
Conditions: Syntenin-1 1000 ng/ml 24 h, HIF1αi 2 μM, mTORi 1 μM, FIGS. 13I-K
Experimental: HUVECs were treated with 20 Syntenin-1 (1000 ng/ml) for 0-60 mins to detect expression of GLUT1. HK2. PFK2, cMYC. HIF1α, and LDHA (FIG. 13B) or 0-48 h to detect HK2, PFK2, mTOR/RAPTOR and LDHA (FIG. 13C) and actin was visualized as equal loading, (n=3). HUVECs were treated with PBS or Syntenin-1 (1000 ng/ml) in the presence or absence of 2-DG (5 mM), cMYCi (50 μM) and/or mTORi (1 μM) or HIF1αi (2 μM) to quantify transcription of HIF1α (FIG. 13E, n=10), RAPTOR (FIG. 13F, n=7). TNF (FIG. 13H, n=5). […] HUVECs were treated with PBS or Syntenin-1 (1000 ng/ml) in the presence or absence of SDC-1 Ab (SDCab: 1:100). […] Data are presented as mean±SEM; significant differences were determined by the Mann-Whitney test, 2way ANOVA, or one-way ANOVA. *p<0.05. **p<0.01, ***p<0.001, ****p<0.0001.
FIGS. 20A-F show blood Syntenin-1 and SDC-1 relative levels are unaffected by RA therapy and glycolytic metabolites can modulate inflammatory factors and oxidative metabolites in Syntenin-1 reprogrammed endothelial cells. Relative expression of Syntenin-1 (FIG. 20A) or SDC-1 (FIG. 20B) was determined by RNAseq (Lewis M J, et al. Cell reports. 2019; 28:2455-2470 e2455) in blood from RA non-responsive (Non-R)(ΔDAS28≤0.6, n=16) or those with moderate (ΔDAS28≤1.2 & >0.6, n=22) or good response (ΔDAS28>1.2, n=21). […]
Metabolite quantification. […]

## CO[C@H]1C[C@@H]2CC[C@@H](C)[C@@](O)(O2)C(=O)C(=O)N2CCCC[C@H]2C(=O)O[C@H]([C@H](C)C[C@@H]2CC[C@@H](OCCO)[C@H](OC)C2)CC(=O)[C@H](C)/C=C(\C)[C@@H](O)[C@@H](OC)C(=O)[C@H](C)C[C@H](C)/C=C/C=C/C=C/1C [mTORi, Everolimus]
  oxidative metabolites, AMPK, PGC-1a, and citrate: unchanged
